In ChEMBL document CHEMBL1156046, “Amiodarone and its putative metabolites fail to activate wild type hTAAR1” (Bioorg Med Chem Lett, 2009) one finds Activity, Emax and EC50 data, which are given here for ten molecules.

The term Emax denotes the maximal effect, on the per cent scale that the assay sets. One may read the EC50 as the midpoint of the concentration-response curve.

Assay [1] deals with T1, Trace amine-associated receptor 1 (Homo sapiens) (UniProt Q96RJ0).
T1 sequence (whole entry): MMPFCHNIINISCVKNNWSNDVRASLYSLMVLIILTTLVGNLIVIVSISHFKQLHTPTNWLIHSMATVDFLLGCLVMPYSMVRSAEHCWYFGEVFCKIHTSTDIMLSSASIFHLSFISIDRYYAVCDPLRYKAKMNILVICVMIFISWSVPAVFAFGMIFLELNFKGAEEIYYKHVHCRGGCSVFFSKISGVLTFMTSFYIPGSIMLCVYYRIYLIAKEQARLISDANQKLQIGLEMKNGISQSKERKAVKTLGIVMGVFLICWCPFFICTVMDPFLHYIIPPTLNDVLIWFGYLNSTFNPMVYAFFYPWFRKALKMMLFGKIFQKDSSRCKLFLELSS
Kind of assay: Activation of human TAAR1 expressed in CHOK1 cells assessed as cAMP accumulation at 0.1 to 1 uM. It is filed as functional, cell-based. The following applies: CHO-K1. On the technique in general: Changes in cAMP serve as a functional read-out for many G protein-coupled receptors.

Assay [2] has as its target T1, Trace amine-associated receptor 1 (Homo sapiens). The assay can be described thus: Activation of human TAAR1 expressed in CHOK1 cells assessed as cAMP accumulation at 10 uM relative to beta-phenethylamine. It is filed as functional, cell-based. The following applies: CHO-K1.
Assay [3] has the same target. The assay can be described thus: Activation of human TAAR1 expressed in CHOK1 cells coexpressing Galpha16 assessed as calcium accumulation at 0.1 to 1 uM relative to beta-phenethylamine. It counts as functional, cell-based. The following applies: CHO-K1.
Assay [4] relates to CHO. Kind of assay: Effect on calcium mobilization in CHO cells stably expressing Galpha16 at 10 uM relative to beta-phenethylamine. It is filed as functional, Cricetulus griseus.
In assay [5] the target is T1, Trace amine-associated receptor 1 (Homo sapiens). The assay can be described thus: Activation of human TAAR1 expressed in CHOK1 cells coexpressing Galpha16 assessed as calcium accumulation relative to control. It is filed as functional, cell-based. The following applies: CHO-K1.
For assay [6], the target named is T2, Trace amine-associated receptor 1 (Homo sapiens, UniProt Q96RJ0).
T2 sequence (Q96RJ0 whole entry): T1 sequence (whole entry)
Kind of assay: Activation of human TAAR1 expressed in CHOK1 cells coexpressing Galpha16 assessed as calcium accumulation. It is filed as functional, cell-based, CHO-K1.

Assay [7] concerns CHO. Kind of assay: Effect on calcium mobilization in CHO cells stably expressing Galpha16. It counts as functional, cell-based. Conditions: Cricetulus griseus. (Calcium flux is commonly read through the fluorescence of an indicator in the cells.)

The source made the active and inactive calls. No cut-off for these calls is given here. Bounds are passed on as bounds.

Take `CCCCc1oc2ccccc2c1C(=O)c1ccc(OCCNCC)cc1`: the outcome in assay [1] and in assay [3] was inactive. For the same molecule, the Activity in assay [2] was under 5%.
In the case of `CCCCc1oc2ccccc2c1C(=O)c1ccc(OCCNCC)c(I)c1`, the result in assay [1] and in assay [3] was inactive.
`CCCCc1oc2ccccc2c1C(=O)c1cc(I)c(OCCNCC)c(I)c1` [DESETHYLAMIODARONE]: the outcome in assay [1] and in assay [3] was inactive. In assay [4], the Activity is on record as 44%.
On to `CCCCc1oc2ccccc2c1C(=O)c1ccc(OCCN)c(I)c1`, for which the outcome in assay [1] and in assay [3] was inactive. Also, in assay [2], the Activity is under 5%.
For `CCCCc1oc2ccccc2c1C(=O)c1ccc(OCCN(CC)CC)c(I)c1`, the result in assay [1] and in assay [3] was inactive.
Turning to `NCCOc1ccccc1`, the Emax in assay [5] came to 41%. The EC50 in assay [6] was 1790 nM.
For `CCCCc1oc2ccccc2c1C(=O)c1cc(I)c(OCCN)c(I)c1`, the result in assay [1] and in assay [3] was inactive. The Activity in assay [2] was under 5%.
Take `CCCCc1oc2ccccc2c1C(=O)c1ccc(OCCN)cc1`: the result in assay [1] and in assay [3] was inactive.
Turning to `CCCCc1oc2ccccc2c1C(=O)c1cc(I)c(OCCN(CC)CC)c(I)c1`, the outcome in assay [1] and in assay [7] was inactive.
As to `CCCCc1oc2ccccc2c1C(=O)c1ccc(OCCN(CC)CC)cc1`, the outcome in assay [1] and in assay [3] was inactive.
